Data taken from article PMC10010340, “The Wnt Pathway Inhibitor RXC004 Blocks Tumor Growth and Reverses Immune Evasion in Wnt Ligand–dependent Cancer Models” (Cancer Research Communications, 2022).
Converted amounts (≈) assume the structure as drawn. Like-named read-outs stand apart in the source and are kept apart here.

Experiments:
Aqueous solubility = type: physicochemical; conditions: pH 7.4 buffer, 25°C
Experimental: Following filtration under positive pressure, compound concentration in solution was assessed by high-performance liquid chromatography coupled to an ultraviolet detector (LC-UV).

[1] = pKa by fast UV (spectrometric) technique; type: physicochemical; conditions: 25°C; for pKa: methanol-water mixture
Experimental: pKas were determined using the fast UV (spectrometric) technique. Samples were titrated under methanol-water mixture between pH2.0 and pH12.0 at 30–15 μmol/L at 25°C. The ionic strength was 0.192 mol/L (KCl). Aqueous pKas were determined per Yasuda-Shedlovsky ([17]).

Hepatocyte stability = type: in vitro ADME, rat (Sprague Dawley); conditions: Rat, 1 μmol/L
Experimental: (§1) Metabolic stability: liver microsomes and hepatocytes from human, mouse (CD1), rat (Sprague Dawley) and dog (Beagle) were obtained from Invitrogen. RXC004 (1 μmol/L) was incubated at 37°C with microsomes (0.5 mg · mL^−1) or hepatocytes (0.5 × 10^6 cells · mL^−1). Aliquots were removed at 0–45 minutes and RXC004 concentrations determined by LC/MS-MS analysis. Half-life (T1/2) and intrinsic clearance (CLint) were calculated as described in ref. [18].

Microsomal stability [2] = type: in vitro ADME, mouse (CD1); conditions: Mouse, 1 μmol/L
Experimental: as §1

Microsomal stability [3] = type: in vitro ADME, dog (Beagle); conditions: Dog, 1 μmol/L
Experimental: as §1

HPAF-II cells = test: Cell-cycle analysis, phospho-Ser10 histone H3 flow cytometry; type: cell-based, human; conditions: 100 nmol/L, representative plot (DMSO 2.03%)
Experimental: For concentration–response effects on gene expression, Single-Shot Cell Lysis kit (Bio-Rad #172-5080) was used for RNA extraction, data were normalized to DMSO-treated controls, and IC50 values determined. For cell-cycle analysis, the cancer cell line panel was treated with RXC004 (100 nmol/L) or DMSO (0.1%) for 3 days. Cell-cycle profiles were determined by staining with propidium iodide (Thermo Fisher Scientific #P3566) and phospho-Ser10-Histone-H3 (AlexaFluor-647, BioLegend #650806), and quantified using an Agilent Novocyte-3000 flow cytometer. For in vitro growth curve analysis, HPAF-II and SNU-1411 cells were seeded in 96-well plates at 2,000 cells/well and imaged on the IncuCyte (Sartorius) at 10× magnification with 4 fields of view per well. Total cell object count over time was calculated using the Adherent Cell-by-Cell analysis module.

CT26 tumors = test: CT26/BALB/c syngeneic model; type: in vivo, mouse (BALB/c); conditions: RXC004 1.5 or 5 mg/kg once daily; anti-PD-1 10 mg/kg every 3 days
Experimental: CT26/BALB/c syngeneic model was performed at ProQuinase GmbH. Mouse CT26 cells (5 × 10^5) were subcutaneously implanted in the flanks of the immunocompetent female BALB/c mice. Treatment was initiated once tumors reached approximately 50 mm^3. RXC004 was dosed orally at 1.5 or 5 mg/kg (once daily). Anti-PD-1 (BioXCell) or isotype control was dosed every 3 days at 10 mg/kg i.p. Tumor volume was measured over time. For immunophenotyping the tumor infiltrate, tumors from a separate study were resected at day 14, weighed, digested, and stained for flow cytometry analysis by Beckton Dickenson LSR Fortessa. T-cell analysis panel included viability dye, CD45, CD3, CD4, CD8, CD25, and FOXP3.

SMILES: Cc1c(-c2ccnc(C(F)(F)F)c2)ncn1CC(=O)Nc1ccc(-c2cnccn2)cn1 [RXC004, 2-[5-methyl-4-[2-(trifluoromethyl)-4-pyridyl]imidazol-1-yl]-N-(5-pyrazin-2-yl-2-pyridyl)acetamide]
- solubility at 24 h (Aqueous solubility): 56 µM (≈ 24.6 µg/mL)
- pKa (most basic) [1]: 3.84
- pKa ([1]; read-out: pKa (most acidic)): 11.2
- pKa ([1]; read-out: pKa (most basic)): 3.8
- Hepatocyte stability: CLint (Hepatocyte stability): 5.3 μL minute^−^1 · 10^6 cells^−^1
- Microsomal stability: CLint (Microsomal stability [2]): 3.9 μL minute^−^1 · mg^−^1
- Microsomal stability: CLint (Microsomal stability [3]): 31.6 μL minute^−^1 · mg^−^1
- pH3+ (percentage phospho-Ser10 histone H3 positive cells) (HPAF-II cells): 0.28%
- tumor growth (CT26 tumors): limited effect on tumor growth
